Assays:
[1] = system: WT mouse embryonic dorsal root ganglion (DRG) neurons; assay: Axon degeneration in cultured WT DRG neurons; type: cell-based; details: for activity as SARM1 activator (tested compounds): axon degeneration and SARM1 activation assays
Description: (§1) DRG neuron culture: Mouse DRG culture was as described previously. Mouse DRGs were dissected at embryonic day 13.5. Approximately 50 ganglia were collected from each embryo and dissociated in 0.05% Trypsin containing 0.02% EDTA (Gibco) at 37° C. for 20 min. The DRG neurons were washed 3 times with DRG culture medium after incubation with Trypsin. Cells were seeded as spot cultures in 96-tissue culture plates (Corning) coated with 0.1 mg/ml poly-D-lysine and 0.1 mg/ml laminin. They were cultured in Neurobasal (Gibco) containing 2% B27 (Invitrogen), 100 ng/ml 2.5S NGF (Harlan Bioproducts), and 1 μM 5-fluoro-2′-deoxyuridine/1 μM uridine. The culture medium was exchanged with fresh DRG culture medium every 2-3 days. Lentiviruses were added 3 days after seeding (DIV3).
[…] After axon transection, bright-field images of distal axons were taken using the Operetta automated imaging system (PerkinElmer). Axon degeneration indexes were calculated from these bright-field images using ImageJ (NIH). The axon degeneration index was calculated as the ratio of fragmented axon areas as previously described. Indexes were calculated as the average of six fields per well.

Sarm1 KO DRG neurons = assay: Axon degeneration and neuronal death in cultured Sarm1 KO DRG neurons; type: cell-based, mouse
Description: as §1
Quantification of axon degeneration: After culture for 7 days, axotomy was performed by cutting DRG axons manually with a razor blade. After axon transection, bright-field images of distal axons were taken using the Operetta automated imaging system (PerkinElmer). Axon degeneration indexes were calculated from these bright-field images using ImageJ (NIH). The axon degeneration index was calculated as the ratio of fragmented axon areas as previously described. Indexes were calculated as the average of six fields per well.

SARM1 = target: T1, SARM1 (Homo sapiens, UniProt Q6SZW1); assay: SARM1 activation assay by PC6 fluorescence; type: biochemical
T1 construct: StrepTag (N); made in house; host or cells: HEK 293T cells stably expressing NRK1
T1 sequence (Q6SZW1 28-724): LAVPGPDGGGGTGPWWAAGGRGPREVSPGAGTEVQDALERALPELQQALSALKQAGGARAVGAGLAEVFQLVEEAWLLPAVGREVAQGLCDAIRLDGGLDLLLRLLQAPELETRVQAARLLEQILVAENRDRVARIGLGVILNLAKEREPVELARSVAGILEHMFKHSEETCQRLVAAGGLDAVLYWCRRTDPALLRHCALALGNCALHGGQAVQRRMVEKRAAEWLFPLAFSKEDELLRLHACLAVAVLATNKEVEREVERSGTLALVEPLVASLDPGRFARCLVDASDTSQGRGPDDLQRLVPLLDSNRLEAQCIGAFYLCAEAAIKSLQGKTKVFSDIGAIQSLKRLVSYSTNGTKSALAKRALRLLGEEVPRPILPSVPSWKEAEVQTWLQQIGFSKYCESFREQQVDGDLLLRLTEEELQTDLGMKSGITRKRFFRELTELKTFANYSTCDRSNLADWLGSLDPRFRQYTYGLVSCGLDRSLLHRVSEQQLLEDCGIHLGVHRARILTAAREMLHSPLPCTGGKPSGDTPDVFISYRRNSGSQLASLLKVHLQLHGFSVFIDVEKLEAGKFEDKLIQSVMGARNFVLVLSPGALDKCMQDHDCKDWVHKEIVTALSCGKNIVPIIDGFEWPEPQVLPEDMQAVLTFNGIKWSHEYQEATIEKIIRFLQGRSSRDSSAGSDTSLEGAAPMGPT
Description: SARM1 protein purification from mammalian cells: A HEK 293T cell line stably expressing NRK1 was used to produce SARM1 protein as previously described. In short, plasmid containing N-terminal StrepTag-SARM1 was transfected into NRK1-HEK 293T cells using X-tremeGENE reagent (Millipore Sigma). After 2 days, the cells were harvested and re-suspended with binding buffer (100 mM Tris-HCL pH 8, 150 mM sodium chloride, 0.01% Tween-20 with EDTA-free protease inhibitors (Pierce)). After sonication, cell debris was removed by centrifugation at 15,000×g for 10 minutes. Soluble lysates were then mixed with StrepTactin Megbeads (Cube Biotech) equilibrated with the same binding buffer. After incubation at 4° C. for 60 minutes, beads were washed with washing buffer (25 mM HEPES, pH 7.5 and 150 mM NaCl with EDTA-free protease inhibitors). […]
SARM1 activation assay by PC6 fluorescence: Modified from previous paper, typically, in a mixture of 50 μl, ˜200 ng of SARM1(on-beads) was mixed with 50 μM PC6, 50 μM NAD^+ and 0 to 100 μM of purified 3APMN. The reaction was carried out in a Bio Tek's Cytation 5 plate reader at 25° C. Fluorescence signal, which corresponds to PAD6 formation, was recorded with 405 nm excitation and 520 nm emission wavelengths every 2 minutes. The production rate of PAD6 was calculated based on the fluorescence changes within the first 30 minutes of reaction.

WT DRG neurons = assay: Metabolite measurement by LC-MS/MS in WT DRG neurons; type: cell-based, mouse; details: neurons pre-treated with FK866 prior to 3-AP addition
Description: as §1
Metabolite measurement using LC-MS/MS: Lyophilized samples were reconstituted with 50 μl of 5 mM ammonium formate and centrifuged at 12,000 g for 10 min. Cleared supernatants were transferred to sample vials. Serial dilutions of standards for each metabolite in 5 mM ammonium formate were used for calibration. HPLC-mass spectrometry analysis was performed on an Agilent 1290 Infinity II liquid chromatography system (Agilent Technologies, Santa Clara, CA) with a flexible pump, multisampler, sample cooler and an MCT containing an Atlantis T3 column (2.1×150 mm, 3 μm) and VanGuard guard cartridge (2.1 mm×5 mm, 3 μm) (Waters, Milford, MA), coupled to an Agilent 6470 Triple Quad mass spectrometer (Agilent Technologies, Santa Clara, CA). The mobile phase (0.15 ml/min) was 5 mM ammonium formate in water (A) and 100% methanol (B). The column was equilibrated with 0% B, maintained after injection for 2 min, then a linear gradient to 20% B applied over 4 min. The column was then ramped to 50% B over 2 min, and held at 50% for 2 min, then reverted back to 0% B over the next 5 min and allowed to re-equilibrate at 0% B for 9 min. The total run time was 24 min per sample. […] Raw data were acquired and quantified using MassHunter Workstation software version B.08.00 for 6400 Series Triple Quadrupole (Agilent Technologies, Santa Clara, CA).

sensory neurons = assay: Vacor-induced degeneration of sensory neurons; type: cell-based

CC(=O)c1ccccn1 [2-acetylpyridine]
activity as SARM1 activator (tested compounds) [1]: did not work

Nc1ccccn1 [2-aminopyridine]
axon degeneration (Sarm1 KO DRG neurons): not in Sarm1 KO neurons | axon degeneration ([1]; WT neurons): causes axon degeneration

CC(=O)c1ccc[n+]([C@@H]2O[C@H](COP(=O)([O-])O)[C@@H](O)[C@H]2O)c1 [3-APMN, 3-acetylpyridine mononucleotide]
EC50 (SARM1): ~44 µM

Nc1cccnc1 [3-aminopyridine]
activity as SARM1 activator (tested compounds) [1]: did not work

CC(=O)c1ccncc1 [4-acetylpyridine]
activity as SARM1 activator (tested compounds) [1]: did not work

Nc1ccncc1 [4-aminopyridine]
activity as SARM1 activator (tested compounds) [1]: did not work

O=C(/C=C/c1cccnc1)NCCCCC1CCN(C(=O)c2ccccc2)CC1 [FK866, reference compound]
3-APMN, 3-APAD and cADPR levels in 3-AP treated neurons (WT DRG neurons): 3-APMN and 3-APAD remain at baseline, and cADPR levels do not increase | effect on neurotoxic actions of 3-AP ([1]; FK866 25, 50 or 100 nM overnight, then 3-AP 300 μM): blocks the neurotoxic actions of 3-AP

NC(=O)c1cccnc1 [Nam, nicotinamide]
effect of pretreatment on 3-AP-induced axon degeneration ([1]; Nam 0, 50, 100 or 200 μM overnight, then 3-AP 500 μM): reduces 3-AP-induced axon degeneration in a dose-dependent manner

O=C(NCc1cccnc1)Nc1ccc([N+](=O)[O-])cc1 [Vacor, N-(4-Nitrophenyl)-N′-[(pyridin-3-yl)methyl]urea]
SARM1 dependence of neuron degeneration (sensory neurons; FIG. 6): SARM1-dependent | effect of local application to neurites (sensory neurons; local application to neurites): causes distal neurite degeneration without harming neuron cell bodies
